Test results taken from patent US9353072B2, “Antimicrobial substituted thiazoles and methods of use” (Purdue Research Foundation, priority 2012, dated 2016).
≈ marks a conversion by molar mass, not a printed value. Where two headings read alike, the source gives them in different places.

Key:
[1] = tested on: MRSA USA200; experiment: MIC broth microdilution, MRSA USA200; format: cell-based; settings: Staphylococcus aureus, read-out: Minimum Inhibitory Concentration
Protocol: (§1) Determination of minimum inhibitory concentration (MIC). The MICs of the lead thiazole compound (compound 1a) and nine derivatives tested against all 18 MRSA strains were determined, in triplicate samples, using the broth microdilution method in accordance with the recommendations contained in the CLSI guidelines.

[2] = tested on: VISA HIP07256 (NRS19); experiment: MIC/MBC broth microdilution, NRS19 (VISA HIP07256); format: cell-based; settings: Staphylococcus aureus
Protocol: as §1

[3] = tested on: MRSA ATCC 43300; experiment: MIC/MBC broth microdilution, MRSA ATCC 43300; format: cell-based, Staphylococcus aureus; settings: Staphylococcus aureus
Protocol: as §1

[4] = tested on: VISA LIM 3 (NRS37); experiment: MIC/MBC broth microdilution, NRS37 (VISA LIM 3); format: cell-based; settings: Staphylococcus aureus
Protocol: as §1

[5] = tested on: MRSA NRS384 (USA300); experiment: MIC/MBC broth microdilution, NRS384 (USA300); format: cell-based; settings: Staphylococcus aureus
Protocol: as §1

[6] = tested on: MRSA ATCC 700699 (NRS1, VISA); experiment: MIC/MBC broth microdilution, NRS1 (ATCC 700699); format: cell-based; settings: Staphylococcus aureus
Protocol: as §1

[7] = tested on: NRS119; experiment: MIC/MBC broth microdilution, NRS119; format: cell-based; settings: Staphylococcus aureus
Protocol: as §1

[8] = tested on: NRS194; experiment: MIC/MBC broth microdilution, NRS194; format: cell-based; settings: Staphylococcus aureus
Protocol: as §1

[9] = tested on: MRSA USA100; experiment: MIC broth microdilution, MRSA USA100; format: cell-based; settings: Staphylococcus aureus, read-out: Minimum Inhibitory Concentration
Protocol: as §1

[10] = tested on: MRSA USA400 (NRS123); experiment: MIC/MBC broth microdilution, NRS123 (USA400); format: cell-based; settings: Staphylococcus aureus
Protocol: as §1

[11] = tested on: MRSA (USA300); experiment: Time-kill assay; format: cell-based, Staphylococcus aureus; settings: 3.0×MIC; MRSA (USA300)
Protocol: Time-kill assay. […] Viable CFU/mL was determined by serial dilution and plating on trypticase soy agar (TSA) (Becton, Dickinson and Company, Sparks, Md., USA) plates after 0, 2, 4, 6, 8, 10, and 12 hours of incubation at 37° C. to identify the time required to reduce the bacterial cell count by 3-log10.

[12] = tested on: MRSA USA500 (NRS385); experiment: MIC/MBC broth microdilution, NRS385 (USA500); format: cell-based; settings: Staphylococcus aureus
Protocol: as §1

[13] = tested on: NRS107; experiment: MIC/MBC broth microdilution, NRS107; format: cell-based; settings: Staphylococcus aureus
Protocol: as §1

[14] = tested on: VRSA (VRS10); experiment: MIC/MBC broth microdilution, VRSA (VRS10); format: cell-based, Staphylococcus aureus; settings: Staphylococcus aureus; for MBC: read-out: Minimum Bactericidal Concentration; for MIC: read-out: Minimum Inhibitory Concentration
Protocol: as §1

[15] = read-out: Minimum Inhibitory Concentration
[16] = NRS 119 / VISA, read-out: Minimum Inhibitory Concentration
[17] = Table 8, NRS19 (VISA), read-out: MBC
[18] = Table 8, NRS19 (VISA), read-out: MIC
[19] = Table 6, MRSA ATCC 43300, 128 μM down to 1.0 μM, 20 hours, read-out: MIC
[20] = Table 6, MRSA ATCC 43300, plating on TSA, 20 hour incubation, read-out: MBC
[21] = Table 7, MRSA (ATCC 43300), read-out: Minimum Bactericidal Concentration
[22] = Table 7, MRSA (ATCC 43300), read-out: Minimum Inhibitory Concentration
[23] = Table 8, ATCC 43300, read-out: MBC
[24] = Table 8, ATCC 43300, read-out: MIC
[25] = Table 8, NRS37 (VISA), read-out: MBC
[26] = Table 8, NRS37 (VISA), read-out: MIC
[27] = Table 7, VISA (NRS1), read-out: Minimum Bactericidal Concentration
[28] = Table 7, VISA (NRS1), read-out: Minimum Inhibitory Concentration
[29] = Table 8, NRS1 (VISA), read-out: MBC
[30] = Table 8, NRS1 (VISA), triplicates, 20 hours, read-out: MIC
[31] = NRS 119 / VISA, Table 7, VISA (NRS119), read-out: Minimum Bactericidal Concentration
[32] = NRS 119 / VISA, Table 7, VISA (NRS119), read-out: Minimum Inhibitory Concentration
[33] = read-out: Minimum Bactericidal Concentration

CN[C@H](CC(C)C)C(=O)N[C@H]1C(=O)N[C@@H](CC(N)=O)C(=O)N[C@H]2C(=O)N[C@H]3C(=O)N[C@H](C(=O)N[C@H](C(=O)O)c4cc(O)cc(O)c4-c4cc3ccc4O)[C@H](O)c3ccc(c(Cl)c3)Oc3cc2cc(c3O[C@@H]2O[C@H](CO)[C@@H](O)[C@H](O)[C@H]2O[C@H]2C[C@](C)(N)[C@H](O)[C@H](C)O2)Oc2ccc(cc2Cl)[C@H]1O [Vancomycin, reference compound]
MIC [1]: 0.4 µg/mL (≈ 0.276 µM)
MBC [2]: < 1 µM
MIC [2]: < 1 µM
MBC [3]: 0.5 µM (≈ 0.725 µg/mL)
MIC [3]: 0.5 µM (≈ 0.725 µg/mL)
MIC [3, 15]: < 1 µM
MBC [4]: 2 µM (≈ 2.9 µg/mL)
MBC [5]: 0.5 µM (≈ 0.725 µg/mL)
MIC [5]: 0.5 µM (≈ 0.725 µg/mL)
MBC [6]: 2 µM (≈ 2.9 µg/mL)
MBC ([7]; NRS119): < 1 µM
MIC ([7]; NRS119): < 1 µM
MIC ([7]; NRS119, read-out: Minimum Inhibitory Concentration): 1.4 µg/mL
MIC [7, 16]: < 1 µM
MBC [8]: 0.5 µM (≈ 0.725 µg/mL)
MIC [8]: 0.5 µM (≈ 0.725 µg/mL)
MIC [9]: 1.4 µg/mL (≈ 0.966 µM)
MBC [10]: 0.5 µM (≈ 0.725 µg/mL)
MIC [10]: 0.5 µM (≈ 0.725 µg/mL)
time to reduce the number of CFU by 3-log10 [11]: > 12 hours
MBC [12]: 0.5 µM (≈ 0.725 µg/mL)
MIC [12]: 0.5 µM (≈ 0.725 µg/mL)
MBC [13]: < 1 µM
MIC [13]: < 1 µM

C/C(=N/NC(=N)N)c1sc(-c2ccc(-c3ccc(F)cc3)cc2)nc1C [Compound M12, (Z)-2-(1-(2-(4′-fluoro-[1,1′-biphenyl]-4-yl)-4-methylthiazol-5-yl)ethylidene)hydrazinecarboximidamide]
MBC [2, 17]: 16 µM (≈ 5.88 µg/mL)
MIC [2, 18]: 16 µM (≈ 5.88 µg/mL)
MIC [3, 19]: 4 µM (≈ 1.47 µg/mL)
MBC [3, 20]: > 16 µM
MBC [3, 21]: 16 µM (≈ 5.88 µg/mL)
MIC [3, 22]: 4 µM (≈ 1.47 µg/mL)
MBC [3, 23]: 16 µM (≈ 5.88 µg/mL)
MIC [3, 24]: 16 µM (≈ 5.88 µg/mL)
MBC [4, 25]: 16 µM (≈ 5.88 µg/mL)
MIC [4, 26]: 8 µM (≈ 2.94 µg/mL)
MBC ([5]; Table 8, NRS384, read-out: MBC): 16 µM (≈ 5.88 µg/mL)
MIC ([5]; Table 8, NRS384, read-out: MIC): 16 µM (≈ 5.88 µg/mL)
MBC [6, 27]: 8 µM (≈ 2.94 µg/mL)
MIC [6, 28]: 4 µM (≈ 1.47 µg/mL)
MBC [6, 29]: 8 µM (≈ 2.94 µg/mL)
MIC [6, 30]: 8 µM (≈ 2.94 µg/mL)
MBC [7, 31]: 16 µM (≈ 5.88 µg/mL)
MIC [7, 32]: 16 µM
MBC ([7]; Table 8, NRS119, read-out: MBC): 32 µM (≈ 11.8 µg/mL)
MIC ([7]; Table 8, NRS119, read-out: MIC): 16 µM
MBC ([8]; Table 8, read-out: MBC): 32 µM (≈ 11.8 µg/mL)
MIC ([8]; Table 8, read-out: MIC): 16 µM (≈ 5.88 µg/mL)
MBC ([14]; Table 7, VRSA (VRS10)): 64 µM (≈ 23.5 µg/mL)
MIC ([14]; Table 7, VRSA (VRS10)): 8 µM (≈ 2.94 µg/mL)
MBC ([10]; Table 8, NRS123, read-out: MBC): 32 µM (≈ 11.8 µg/mL)
MIC ([10]; Table 8, NRS123, read-out: MIC): 16 µM (≈ 5.88 µg/mL)
MBC ([12]; Table 8, NRS385, read-out: MBC): 16 µM (≈ 5.88 µg/mL)
MIC ([12]; Table 8, NRS385, read-out: MIC): 16 µM (≈ 5.88 µg/mL)
MBC ([13]; Table 8, read-out: MBC): 16 µM (≈ 5.88 µg/mL)
MIC ([13]; Table 8, read-out: MIC): 8 µM (≈ 2.94 µg/mL)

C/C(=N\NC(=N)N)c1sc(-c2cccc(F)c2)nc1C [Compound M16, (E)-2-(1-(2-(3-fluorophenyl)-4-methylthiazol-5-yl)ethylidene)hydrazinecarboximidamide]
MBC [2]: 128 µM (≈ 37.3 µg/mL)
MIC [2]: 128 µM (≈ 37.3 µg/mL)
MBC [3]: 128 µM (≈ 37.3 µg/mL)
MIC [3]: 128 µM (≈ 37.3 µg/mL)
MIC ([3]; 20 h): 32 µM (≈ 9.32 µg/mL)
MBC [3, 33]: 64 µM (≈ 18.6 µg/mL)
MIC [3, 15]: 32 µM (≈ 9.32 µg/mL)
MBC [4]: 128 µM (≈ 37.3 µg/mL)
MIC [4]: 128 µM (≈ 37.3 µg/mL)
MBC [5]: 128 µM (≈ 37.3 µg/mL)
MIC [5]: 128 µM (≈ 37.3 µg/mL)
MBC [6]: 128 µM (≈ 37.3 µg/mL)
MIC ([6]; 20 h): 128 µM (≈ 37.3 µg/mL)
MBC [6, 33]: 64 µM (≈ 18.6 µg/mL)
MIC [6, 15]: 32 µM (≈ 9.32 µg/mL)
MBC ([7]; NRS119): 128 µM (≈ 37.3 µg/mL)
MIC ([7]; NRS119): 128 µM
MBC ([7]; NRS 119 / VISA, read-out: Minimum Bactericidal Concentration): 64 µM (≈ 18.6 µg/mL)
MIC [7, 16]: 64 µM
MBC [8]: 128 µM (≈ 37.3 µg/mL)
MIC [8]: 128 µM (≈ 37.3 µg/mL)
MBC ([14]; VRSA): 128 µM (≈ 37.3 µg/mL)
MIC ([14]; VRSA): 32 µM (≈ 9.32 µg/mL)
MBC [10]: 128 µM (≈ 37.3 µg/mL)
MIC [10]: 128 µM (≈ 37.3 µg/mL)
MBC [12]: 128 µM (≈ 37.3 µg/mL)
MIC [12]: 128 µM (≈ 37.3 µg/mL)
MBC [13]: 128 µM (≈ 37.3 µg/mL)
MIC [13]: 128 µM (≈ 37.3 µg/mL)

C/C(=N/NC(=N)N)c1sc(-c2ccc(-c3ccc(C(F)(F)F)cc3)cc2)nc1C [Compound M13]
MBC [2, 17]: 8 µM (≈ 3.34 µg/mL)
MIC [2, 18]: 8 µM (≈ 3.34 µg/mL)
MIC [3, 19]: 8 µM (≈ 3.34 µg/mL)
MBC [3, 20]: 16 µM (≈ 6.68 µg/mL)
MBC [3, 21]: 16 µM (≈ 6.68 µg/mL)
MIC [3, 22]: 8 µM (≈ 3.34 µg/mL)
MBC [3, 23]: 8 µM (≈ 3.34 µg/mL)
MIC [3, 24]: 8 µM (≈ 3.34 µg/mL)
MBC [4, 25]: 8 µM (≈ 3.34 µg/mL)
MIC [4, 26]: 8 µM (≈ 3.34 µg/mL)
MBC ([5]; Table 8, NRS384, read-out: MBC): 16 µM (≈ 6.68 µg/mL)
MIC ([5]; Table 8, NRS384, read-out: MIC): 16 µM (≈ 6.68 µg/mL)
MBC [6, 27]: 8 µM (≈ 3.34 µg/mL)
MIC [6, 28]: 4 µM (≈ 1.67 µg/mL)
MBC [6, 29]: 8 µM (≈ 3.34 µg/mL)
MIC [6, 30]: 8 µM (≈ 3.34 µg/mL)
MBC [7, 31]: 32 µM (≈ 13.4 µg/mL)
MIC [7, 32]: 16 µM
MBC ([7]; Table 8, NRS119, read-out: MBC): 16 µM (≈ 6.68 µg/mL)
MIC ([7]; Table 8, NRS119, read-out: MIC): 16 µM
MBC ([8]; Table 8, read-out: MBC): 32 µM (≈ 13.4 µg/mL)
MIC ([8]; Table 8, read-out: MIC): 16 µM (≈ 6.68 µg/mL)
MBC ([14]; Table 7, VRSA (VRS10)): 16 µM (≈ 6.68 µg/mL)
MIC ([14]; Table 7, VRSA (VRS10)): 4 µM (≈ 1.67 µg/mL)
MBC ([10]; Table 8, NRS123, read-out: MBC): 32 µM (≈ 13.4 µg/mL)
MIC ([10]; Table 8, NRS123, read-out: MIC): 16 µM (≈ 6.68 µg/mL)
MBC ([12]; Table 8, NRS385, read-out: MBC): 8 µM (≈ 3.34 µg/mL)
MIC ([12]; Table 8, NRS385, read-out: MIC): 8 µM (≈ 3.34 µg/mL)
MBC ([13]; Table 8, read-out: MBC): 16 µM (≈ 6.68 µg/mL)
MIC ([13]; Table 8, read-out: MIC): 8 µM (≈ 3.34 µg/mL)
